How the values were obtained:
[1] = system: 5-LO; test: Test b): heparinised human blood, A23187 challenge, LTB4 radioimmunoassay; format: cell-based
Method: (§1) b) An in vitro assay system involving incubating a test compound with heparinised human blood, prior to challenge with the calcium ionophore A23187 and then indirectly measuring the inhibitory effects on 5-LO by assaying the amount of […] using the specific radioimmunoassay described by Carey and Forder (F. Carey and R.A. Forder, Brit. J. Pharmacol. 1985, 84, 34P) which involves the use of a protein-LTB4 conjugate produced using the procedure of Young et alia (Prostaglandins, 1983, 26(4), 605-613). The effects of a test compound on the enzyme cyclooxygenase (which is involved in the alternative metabolic pathway for arachidonic acid and gives rise to prostaglandins, thromboxanes and related metabolites) may be measured at the same time using the specific radioimmunoassay for thromboxane B2 (TxB2) described by Carey and Forder (see above). This test provides an indication of the effects of a test compound against 5-LO and also cyclooxygenase in the presence of blood cells and proteins. It permits the selectivity of the inhibitory effect on 5-LO or cyclooxygenase to be assessed.

[2] = system: cyclooxygenase; test: Test b): heparinised human blood, A23187 challenge, TxB2 radioimmunoassay; format: cell-based
Method: as §1

[3] = system: 5-LO; test: Test c): ex vivo assay after oral administration, A23187 challenge of blood, LTB4 radioimmunoassay; format: in vivo
Method: c) An ex vivo assay system, which is a variation of test b) above, involving administration of a test compound (usually orally as the suspension produced when a solution of the test compound in dimethylsulphoxide is added to carboxymethylcellulose), blood collection, heparinisation, challenge with A23187 and radioimmunoassay of LTB4 and TxB2. This test provides an indication of the bioavailability of a test compound as an inhibitor of 5-LO or cyclooxygenase.

CO[C@@H]1CCC[C@]1(OC)c1cccc(OCc2ccc3ccccc3c2)c1 (relative stereo) [trans-1,2-dimethoxy-1-[3-(naphth-2-ylmethoxy)phenyl]cyclopentane]
IC50 [1]: 200 nM
IC50 [2]: > 40000 nM
ED50 [3]: < 100 mg/kg
